In patent US8664220B2, “Polycyclic compounds as lysophosphatidic acid receptor antagonists” (Amira Pharmaceuticals, Inc., priority 2009, dated 2014):

These compounds were tested against T1, human LPA1 (Homo sapiens, UniProt Q92633) (assay: LPA1 calcium flux assay). Details: human LPA1 expressing CHO cells, stimulated with 10 nM LPA; read-out: HLPA1 Ca Flux IC50.
T1 construct: the full-length cDNA for human LPA1 was obtained by PCR of the reverse transcription reaction; expressed in transfected cells
Type: cell-based
Procedure: Establishment of a CHO Cell Line Stably Expressing Human LPA1
A 1.1 kb cDNA encoding the human LPA1 receptor was cloned from human lung.
Human lung RNA (Clontech Laboratories, Inc. USA) was reverse transcribed using the RETROscript kit (Ambion, Inc.) and the full-length cDNA for human LPA1 was obtained by PCR of the reverse transcription reaction. The nucleotide sequence of the cloned human LPA1 was determined by sequencing and confirmed to be identical to the published human LPA1 sequence (An et al. Biochem. Biophys. Res. Commun. 231:619 (1997). The cDNA was cloned into the pcDNA5/FRT expression plasmid and transfected in CHO cells using lipofectamine 2000 (Invitrogen Corp., USA). Clones stably expressing human LPA1 were selected using hygromycin and identified as cells that show Ca-influx in response to LPA.
LPA1 and LPA3 Calcium Flux Assays
Human LPA1 or LPA3 expressing CHO cells are seeded at 20,000-45,000 cells per well in a 96-well poly-D-lysine coated plate one or two days before the assay. Prior to the assay, the cells are washed once with PBS and then cultured in serum-free media overnight. On the day of the assay, a calcium indicator dye (Calcium 4, Molecular Devices) in assay buffer (HBSS with Ca^2+ and Mg^2+ and containing 20 mM Hepes and 0.3% fatty-acid free human serum albumin) is added to each well and incubation continued for 1 hour at 37° C. 10 μl of test compounds in 2.5% DMSO are added to the cells and incubation continued at room temperature for 30 minutes. Cells are the stimulated by the addition of 10 nM LPA and intracellular Ca^2+ measured using the Flexstation 3 (Molecular Devices). IC50s are determined using Graphpad prism analysis of drug titration curves.

T1 sequence (Q92633 whole entry): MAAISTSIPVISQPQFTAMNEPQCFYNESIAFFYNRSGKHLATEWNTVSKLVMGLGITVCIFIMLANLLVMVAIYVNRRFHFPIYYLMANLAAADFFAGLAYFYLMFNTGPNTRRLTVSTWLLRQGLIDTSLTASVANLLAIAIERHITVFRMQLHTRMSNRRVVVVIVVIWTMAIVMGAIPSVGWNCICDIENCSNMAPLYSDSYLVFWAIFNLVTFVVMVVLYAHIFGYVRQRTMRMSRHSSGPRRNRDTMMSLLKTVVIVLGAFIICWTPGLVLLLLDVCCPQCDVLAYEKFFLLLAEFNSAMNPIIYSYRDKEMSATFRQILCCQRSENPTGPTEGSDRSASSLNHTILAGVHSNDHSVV

| Compound | IC50 |
| --- | --- |
| Cc1noc(-c2ccc(-c3ccc(C4(C(=O)O)CC4)cc3)cc2)c1NC1CCCCC1Cc1ccccc1 (centres unmarked) [Compound 1-1, 1-{4′-[4-(2-Benzyl-cyclohexylamino)-3-methyl-isoxazol-5-yl]-biphenyl-4-yl}-cyclopropanecarboxylic acid] | < 300 nM |
| Cc1ccccc1N1CCN(C(=O)c2c(C)noc2-c2ccc(-c3ccc(C4(C(=O)O)CC4)cc3)cc2)CC1 [Compound 1-2, 1-{4′-[3-Methyl-4-(4-o-tolyl-piperazine-1-carbonyl)-isoxazol-5-yl]-biphenyl-4-yl}-cyclopropanecarboxylic acid] | 1000 to 50000 nM |
| Cc1noc(-c2ccc(-c3ccc(C4(C(=O)O)CC4)cc3)cc2)c1C(=O)N1CCN(S(=O)(=O)c2ccc(Cl)c(Cl)c2)CC1 [Compound 1-3, 1-(4′-{4-[4-(3,4-Dichloro-benzenesulfonyl)-piperazine-1-carbonyl]-3-methyl-isoxazol-5-yl}-biphenyl-4-yl)-cyclopropanecarboxylic acid] | 1000 to 50000 nM |
| Cc1noc(-c2ccc(-c3ccc(C4(C(=O)O)CC4)cc3)cc2)c1C1OC1CCc1ccccc1 (centres unmarked) [Compound 1-4, 1-{4′-[3-Methyl-4-(3-phenethyl-oxiranyl)-isoxazol-5-yl]-biphenyl-4-yl}-cyclopropanecarboxylic acid] | < 300 nM |
| Cc1noc(-c2ccc(-c3ccc(C4(C(=O)O)CC4)cc3)cc2)c1Cn1ccc(-c2ccccc2)n1 [Compound 1-5, 1-{4′-[3-Methyl-4-(3-phenyl-pyrazol-1-ylmethyl)-isoxazol-5-yl]-biphenyl-4-yl}-cyclopropanecarboxylic acid] | < 300 nM |
| Cc1noc(-c2ccc(-c3ccc(C4(C(=O)O)CC4)cc3)cc2)c1Cn1cc(-c2ccccc2)nn1 [Compound 1-6, 1-{4′-[3-Methyl-4-(4-phenyl-[1,2,3]triazol-1-ylmethyl)-isoxazol-5-yl]-biphenyl-4-yl}-cyclopropanecarboxylic acid] | < 300 nM |
| Cc1noc(-c2ccc(-c3ccc(C4(C(=O)O)CC4)cc3)cc2)c1CN1CC(c2ccccc2)CC1=O (centres unmarked) [Compound 1-7, 1-{4′-[3-Methyl-4-(2-oxo-4-phenyl-pyrrolidin-1-ylmethyl)-isoxazol-5-yl]-biphenyl-4-yl}-cyclopropanecarboxylic acid] | < 300 nM |
| Cc1noc(-c2ccc(-c3ccc(C4(C(=O)O)CC4)cc3)cc2)c1Cc1nnc(-c2ccccc2)o1 [Compound 1-8, 1-{4′-[3-Methyl-4-(5-phenyl[1,3,4]oxadiazol-2-ylmethyl)-isoxazol-5-yl]-biphenyl-4-yl}-cyclopropanecarboxylic acid] | < 300 nM |
| Cc1noc(-c2ccc(-c3ccc(C4(C(=O)O)CC4)cc3)cc2)c1Cn1cc(Cc2ccccc2)nn1 [Compound 1-9, 1-{4′-[4-(4-Benzyl-[1,2,3]triazol-1-ylmethyl)-3-methyl-isoxazol-5-yl]-biphenyl-4-yl}-cyclopropanecarboxylic acid] | < 300 nM |
| Cc1noc(-c2ccc(-c3ccc(C4(C(=O)O)CC4)cc3)cc2)c1CN1CCC(c2ccccc2)CC1 [Compound 1-10, 1-{4′-[3-Methyl-4-(4-phenyl-piperidin-1-ylmethyl)-isoxazol-5-yl]-biphenyl-4-yl}-cyclopropanecarboxylic acid] | > 50000 nM |
| Cc1noc(-c2ccc(-c3ccc(C4(C(=O)O)CC4)cc3)cc2)c1Cn1nc(-c2ccccc2)oc1=N [Compound 1-11, 1-{4′-[4-(2-Imino-5-phenyl-[1,3,4]oxadiazol-3-ylmethyl)-3-methyl-isoxazol-5-yl]-biphenyl-4-yl}-cyclopropanecarboxylic acid] | < 300 nM |
| Cc1noc(-c2ccc(-c3ccc(C4(C(=O)O)CC4)cc3)cc2)c1CN1C(=O)OC[C@@H]1Cc1ccccc1 [Compound 1-12, 1-{4′-[4-((S)-4-Benzyl-2-oxo-oxazolidin-3-ylmethyl)-3-methyl-isoxazol-5-yl]-biphenyl-4-yl}-cyclopropanecarboxylic acid] | > 50000 nM |
| Cc1noc(-c2ccc(-c3ccc(C4(C(=O)O)CC4)cc3)cc2)c1Cn1ccc(-c2ccc(Br)cc2)n1 [Compound 1-13, 1-(4′-{4-[3-(4-Bromo-phenyl)-pyrazol-1-ylmethyl]-3-methyl-isoxazol-5-yl}-biphenyl-4-yl)-cyclopropanecarboxylic acid] | 1000 to 50000 nM |
| Cc1noc(-c2ccc(-c3ccc(C4(C(=O)O)CC4)cc3)cc2)c1CN1C(=O)OC[C@@H]1c1ccccc1 [Compound 1-14, 1-{4′-[3-Methyl-4-((S)-2-oxo-4-phenyl-oxazolidin-3-ylmethyl)-isoxazol-5-yl]-biphenyl-4-yl}-cyclopropanecarboxylic acid] | 1000 to 50000 nM |

Second part, the compound after the results:

| IC50 | Compound |
| --- | --- |
| < 300 nM | Cc1noc(-c2ccc(-c3ccc(C4(C(=O)O)CC4)cc3)cc2)c1NC(C)[C@@H]1C[C@H]1c1ccccc1 (relative stereo) [Compound 1-66, 1-(4′-{3-Methyl-4-[trans-1-(2-phenyl-cyclopropyl)-ethylamino]-isoxazol-5-yl}-biphenyl-4-yl)-cyclopropanecarboxylic acid] |
| 300 to 1000 nM | Cc1noc(-c2ccc(-c3ccc(C4(C(=O)O)CC4)cc3)cc2)c1C1CC1C(=O)N(C)[C@H](C)c1ccccc1 (single isomer, unassigned) [Compound 1-26] |
| 300 to 1000 nM | Cc1noc(-c2ccc(-c3ccc(C4(C(=O)O)CC4)cc3)cc2)c1C1CC1C(=O)N(C)[C@H](C)c1ccccc1 (single isomer, unassigned) [Compound 1-27] |
| < 300 nM | Cc1noc(-c2ccc(-c3ccc(C4(C(=O)O)CC4)cc3)cc2)c1C(O)c1nnc(Cc2ccccc2)o1 (single isomer, unassigned) [Compound 1-34, 1-(4′-{4-[(5-Benzyl-[1,3,4]oxadiazol-2-yl)-hydroxy-methyl]-3-methyl-isoxazol-5-yl}-biphenyl-4-yl)-cyclopropanecarboxylic acid] |
| < 300 nM | Cc1noc(-c2ccc(-c3ccc(C4(C(=O)O)CC4)cc3)cc2)c1C(O)c1nnc(Cc2ccccc2)o1 (single isomer, unassigned) [Compound 1-35, 1-(4′-{4-[(5-Benzyl-[1,3,4]oxadiazol-2-yl)-hydroxy-methyl]-3-methyl-isoxazol-5-yl}-biphenyl-4-yl)-cyclopropanecarboxylic acid] |
| < 300 nM | Cc1noc(-c2ccc(-c3ccc(C4(C(=O)O)CC4)cc3)cc2)c1C(O)c1cn(Cc2ccccc2)nn1 (single isomer, unassigned) [Compound 1-40, 1-(4′-{4-[(1-Benzyl-1H-[1,2,3]triazol-4-yl)-hydroxy-methyl]-3-methyl-isoxazol-5-yl}-biphenyl-4-yl)-cyclopropanecarboxylic acid] |
| < 300 nM | Cc1noc(-c2ccc(-c3ccc(C4(CC(=O)O)CC4)cc3)cc2)c1NC(C)c1cc(-c2ccccc2)no1 (single isomer, unassigned) [Compound 1-43, [1-(4′-{3-Methyl-4-[1-(3-phenyl-isoxazol-5-yl)-ethylamino]-isoxazol-5-yl}-biphenyl-4-yl)-cyclopropyl]-acetic acid] |
| < 300 nM | Cc1noc(-c2ccc(-c3ccc(C4(CC(=O)O)CC4)cc3)cc2)c1NC(C)c1cc(-c2ccccc2)no1 (single isomer, unassigned) [Compound 1-44, [1-(4′-{3-Methyl-4-[1-(3-phenyl-isoxazol-5-yl)-ethylamino]-isoxazol-5-yl}-biphenyl-4-yl)-cyclopropyl]-acetic acid] |
| < 300 nM | Cc1noc(-c2ccc(-c3ccc(C4(C(=O)NS(C)(=O)=O)CC4)cc3)cc2)c1C(O)c1cn(Cc2ccccc2)nn1 (single isomer, unassigned) [Compound 3-1, N-[1-(4′-{4-[(1-Benzyl-1H-[1,2,3]triazol-4-yl)-hydroxy-methyl]-3-methyl-isoxazol-5-yl}-biphenyl-4-yl)-cyclopropanecarbonyl]-methanesulfonamide] |
| < 300 nM | Cc1noc(-c2ccc(-c3ccc(C4(C(=O)NS(C)(=O)=O)CC4)cc3)cc2)c1C(O)c1nnc(Cc2ccccc2)o1 (single isomer, unassigned) [Compound 3-2, N-[1-(4′-{4-[(5-Benzyl-[1,3,4]oxadiazol-2-yl)-hydroxy-methyl]-3-methyl-isoxazol-5-yl}-biphenyl-4-yl)-cyclopropanecarbonyl]-methanesulfonamide] |
| 300 to 1000 nM | Cc1noc(-c2ccc(-c3ccc(C4(C(=O)O)CC4)cc3)cc2)c1CN1C(=O)O[C@@H](c2ccccc2)[C@H]1C [Compound 1-15, 1-{4′-[3-Methyl-4-((4R,5S)-4-methyl-2-oxo-5-phenyl-oxazolidin-3-ylmethyl)-isoxazol-5-yl]-biphenyl-4-yl}-cyclopropanecarboxylic acid] |
| < 300 nM | Cc1noc(-c2ccc(-c3ccc(C4(C(=O)O)CC4)cc3)cc2)c1CN1C(=O)O[C@H](c2ccccc2)[C@@H]1C [Compound 1-16, 1-{4′-[3-Methyl-4-((4S,5R)-4-methyl-2-oxo-5-phenyl-oxazolidin-3-ylmethyl)-isoxazol-5-yl]-biphenyl-4-yl}-cyclopropanecarboxylic acid] |
